Results from US20170312290A1, “FUNCTIONALIZED MORPHOLINYL ANTHRACYCLINE DERIVATIVES” (Nerviano Medical Sciences S.R.L., priority 2014, published 2017).

Experiments:
Assay in all cases: In vitro cell proliferation assay (CellTiter-Glo)
Assay type in all cases: cell-based
A2780 = conditions: Homo sapiens, A2780 cells, 72 h treatment, read-out: Cell Line IC50 A2780
Method: (§1) Human cancer cell lines were seeded in white 384 well-plates (1250 cells/well) in complete medium (RPM11640 or E-MEM plus 10% Fetal bovine serum) and treated with compounds dissolved in 0.1% DMSO, 24 h after seeding. The cells were incubated at 37° C. and 5% CO2 and after 72 h the plates were processed using CellTiter-Glo assay (Promega) following the manufacturer's instruction.
(§2) CellTiter-Glo is a homogenous method based on the quantification of the ATP present, an indicator of metabolically active cells. ATP is quantified using a system based on luciferase and D-luciferin resulting into light generation.
(§3) Briefly, 25 μL/well of reagent solution are added to each well and, after 5 minutes shaking, microplates are read by a luminometer. The luminescent signal is proportional to the number of live cells present in culture.
(§4) Dose-response curves were generated by sigmoid function interpolation of 8 concentration points and the antiproliferative activity of compounds was reported as the half-maximal inhibitory concentration (IC50).

HCC1954 = conditions: Homo sapiens, HCC1954 cells, 72 h treatment, read-out: Cell Line IC50 HCC1954
Method: as §1, §2, §3, §4

HCT-116 = conditions: Homo sapiens, HCT-116 cells, 72 h treatment, read-out: Cell Line IC50 HCT-116
Method: as §1, §2, §3, §4

HELA = conditions: Homo sapiens, HELA cells, 72 h treatment, read-out: Cell Line IC50 HELA
Method: as §1, §2, §3, §4

MCF7 = conditions: Homo sapiens, MCF7 cells, 72 h treatment, read-out: Cell Line IC50 MCF7
Method: as §1, §2, §3, §4

MDA-MB-468 = conditions: Homo sapiens, MDA-MB-468 cells, 72 h treatment, read-out: Cell Line IC50 MDA-MB-468
Method: as §1, §2, §3, §4

MDA-MB_213 = conditions: Homo sapiens, MDA-MB_213 cells, 72 h treatment, read-out: Cell Line IC50 MDA-MB_213
Method: as §1, §2, §3, §4

| Compound | IC50 (A2780) [nM] | IC50 (HCC1954) [nM] | IC50 (HCT-116) [nM] | IC50 (HELA) [nM] | IC50 (MCF7) [nM] | IC50 (MDA-MB-468) [nM] | IC50 (MDA-MB_213) [nM] |
| --- | --- | --- | --- | --- | --- | --- | --- |
| CO[C@H]1OCCN2[C@@H]1O[C@@H]1[C@H](C)O[C@@H](O[C@H]3C[C@](O)(C(C)=O)Cc4c(O)c5c(c(O)c43)C(=O)c3c(F)cccc3C5=O)C[C@@H]12 [Comp. 21, (8S,10S)-8-acetyl-1-fluoro-6,8,11-trihydroxy-10-{[(1S,3R,4aS,9aR,10aS)-9-methoxy-1-methyloctahydro-1H-pyrano[4′,3′:4,5][1,3]oxazolo[2,3-c][1,4]oxazin-3-yl]oxy}-7,8,9,10-tetrahydrotetracene-5,12-dione] | 0.032 | 0.377 | 0.146 | 0.349 | 3.52 | 0.072 | 0.306 |
| CO[C@H]1OCCN2[C@@H]1O[C@@H]1[C@H](C)O[C@@H](O[C@H]3C[C@](O)(C(C)=O)Cc4c(O)c5c(c(O)c43)C(=O)c3c(N)cccc3C5=O)C[C@@H]12 [Comp. 22, (8S,10S)-8-acetyl-1-amino-6,8,11-trihydroxy-10-{[(1S,3R,4aS,9S,9aR,10aS)-9-methoxy-1-methyloctahydro-1H-pyrano[4′,3′:4,5][1,3]oxazolo[2,3-c][1,4]oxazin-3-yl]oxy}-7,8,9,10-tetrahydrotetracene-5,12-dione] | 0.044 | 0.549 | 0.2 | 0.7 | 0.668 | 0.313 | 0.538 |
| CO[C@H]1OCCN2[C@@H]1O[C@@H]1[C@H](C)OC(O[C@H]3C[C@](O)(C(C)=O)Cc4c(O)c5c(c(O)c43)C(=O)c3c(NC(=O)[C@H](C)N)cccc3C5=O)C[C@@H]12 (some centres unmarked) [Comp. 26] | 1.2 | 4.8 | 1.1 | 3.5 | 3.8 | 2.3 | – |
